{"source": "patent US7253139B2", "about": "“Surfactant preparations comprising α-hydroxy acids” (Cognis Deutschland GmbH & Co. KG, priority 2001, dated 2007)", "key": {"[1]": {"experiment": "Determination of surface tension, Wilhelmy plate method (DIN 53914)", "format": "physicochemical", "settings": "added to anionic surfactant (Texapon NSO)", "experimental": "Determination of Surface Activity\nSurface activity was determined to DIN 53914. To this end, the solution to be tested was tested by the Wilhelmy plate method (plate PT 11) at 21±1° C. The preparations according to the invention are intended to have a surface activity of at least 20 mN/m, preferably at least 25 mN/m and more particularly at least 30 mN/m, based on the active substance content of 5% by weight.\nThe surface tension of the surfactant solution containing tartaric acid was compared with that of the pure surfactant solution (Texapon® NSO, sodium lauryl ether sulfate; Cognis, Dusseldorf) by conducting measurements at 21±1° C. using the Wilhelmy plate method (plate PT 11) to DIN 53914."}, "[2]": {"experiment": "Determination of foaming behavior, rotor foam method", "format": "physicochemical", "settings": "added to anionic surfactant (Texapon NSO)", "experimental": "To determine foaming behavior, the foaming kinetics after 30 seconds and the foam potential after 60 s and 180 s were measured by the rotor foam method (DIN 13996 in preparation). The rotor foam tester consists of a heatable, double-walled cylindrical glass vessel with an internal diameter of 17.5 cm. A scale in mm is provided on the cylindrical glass vessel for reading off the foam height and the liquid level. In addition, the glass vessel is provided with a Styropor lid which is used both to cover and to insulate the vessel. The stirrer consists of a special stirring head with a stirrer shaft 28 cm in length and 1 cm in diameter and a JK stirrer with a digital revolution counter. A thermostat, a stopwatch and a thermometer (digital) are also required.\nThe test solution was prepared with water of a certain hardness (15° dH). 200 ml of the sample preheated to 30±1° C. were slowly poured in at the rim of the glass vessel which was covered with the Styropor lid when the required temperature of 30±1° C. had been reached. The rotor speed was 1300 r.p.m.\nThe first foam height value was determined after 30 seconds. To this end, the stirrer was switched off for at most 10 seconds. The foam volume was then determined after 60 and 180 seconds."}}}
{"compound": "O=C(O)C(O)C(O)C(=O)O", "note": "(stereo not shown) [tartaric acid]", "values": [{"measurement": "Effect of the addition on the surface activity of the anionic surfactant", "setting": "[1]", "value": "does not significantly affect"}, {"measurement": "Effect of the addition on the foam behavior of the anionic surfactant", "setting": "[2]", "value": "does not significantly affect"}]}
{"compound": "laureth-4-citrate", "values": [{"measurement": "Effect of the addition on the surface activity of the anionic surfactant", "setting": "[1]", "value": "does not significantly affect"}, {"measurement": "Effect of the addition on the foam behavior of the anionic surfactant", "setting": "[2]", "value": "does not significantly affect"}]}
